Tests used:
[1] = cited from earlier work
rat heart tissue = test: GENECALLING differential gene expression analysis after dosing of serotonin modulating agents; format: in vivo, Sprague Dawley rats
Experimental: Control animals received sterile water or canola oil. The animals were sacrificed 24 hours following the last dose. Liver tissue was dissected from the animals, and total RNA was recovered from the dissected tissue. cDNA was prepared and the resulting samples were processed through using GENECALLING™ differential expression analysis as described in U.S. Pat. No. 5,871,697 and in Shimkets et al., Nature Biotechnology 17:798-803 (1999). The contents of these patents and publications are incorporated herein by reference in their entirety.
Thousands of gene fragments were initially found to be differentially expressed in rat heart tissue in response to serotonin modulating agents in. Genes fragments whose expression levels were modulated greater than ±1.5-fold were selected for further analysis.
Column 6 of Table 1, entitled “Function”, lists the type of classification assigned for the protein, based on its function. The 210 single nucleic acid sequences identified herein, are referred to herein as CARDIOTOX 1-210.

## CCNC(C)Cc1cccc(C(F)(F)F)c1 (stereo not shown) [fenfluramine]
[1]; grouping used to generate the distinguishing gene profiles
  classification as cardiotoxic or noncardiotoxic serotonin modulating agent: cardiotoxic
[1]; patients to which they are administered
  side effect reported in a subset of patients: valvular heart disease
Rat heart tissue; CARDIOTOX 1
  Effects on Transcription Level: Novel gene fragment, 524 bp, 86% SI to mouse F-box protein FBX6b [AF176526]: +1.4 fold
Rat heart tissue; CARDIOTOX 2
  Effects on Transcription Level: Novel gene fragment, 306 bp, 91% SI to mouse low density lipoprotein receptor related protein 4 [AB013874]: −1.1 fold
Rat heart tissue; CARDIOTOX 3
  Effects on Transcription Level: Novel gene fragment, 540 bp, 97% SI to mouse skeletal muscle alpha-actin [X03766]: +1.3 fold
Rat heart tissue; CARDIOTOX 4
  Effects on Transcription Level: Novel gene fragment, 80 bp: −1.1 fold
Rat heart tissue; CARDIOTOX 5
  Effects on Transcription Level: Novel gene fragment, 957 bp, 99% SI to kidney injury associated moleculer HW036 [V80591]: −1.4 fold
Rat heart tissue; CARDIOTOX 6
  Effects on Transcription Level: Novel gene fragment, 282 bp, 85% SI to human KIAA1515 protein [AB040948]: −1.3 fold
Rat heart tissue; CARDIOTOX 7
  Effects on Transcription Level: Novel gene fragment, 405 bp, 88% SI to human 2-oxoglutarate dehydrogenase [D10523]: +1.4 fold
Rat heart tissue; CARDIOTOX 8, GenBank AB010743
  Effects on Transcription Level: UCP2: −1.3 fold
Rat heart tissue; CARDIOTOX 9, GenBank J03753
  Effects on Transcription Level: Plasma membrane Ca2 + ATPase-isoform 1: −1.3 fold
Rat heart tissue; CARDIOTOX 10
  Effects on Transcription Level: Novel gene fragment, 242 bp, 97% SI to mouse HSP86 heat-shock protein [X16857]: +1.6 fold
Rat heart tissue; CARDIOTOX 11
  Effects on Transcription Level: Novel gene fragment, 280 bp, 65% SI to human TRF1-interacting, ankyrin-related ADP-ribose polymerase [AF082556]: +1.6 fold
Rat heart tissue; CARDIOTOX 12
  Effects on Transcription Level: Novel gene fragment, 348 bp, 88% SI to mouse Sec61 protein complex gamma subunit [U11027]: +1.6 fold
Rat heart tissue; CARDIOTOX 13
  Effects on Transcription Level: Novel gene fragment 553 bp, 93% SI to mouse Sid329 [AB024984]: +1.5 fold
Rat heart tissue; CARDIOTOX 14, GenBank AB020759
  Effects on Transcription Level: Kruppel-like transcription factor: +1.7 fold
Rat heart tissue; CARDIOTOX 15, GenBank X62166
  Effects on Transcription Level: Ribosomal protein L3: +2.3 fold
Rat heart tissue; CARDIOTOX 16, GenBank S78556
  Effects on Transcription Level: Glucose-regulated protein (GRP) 75: +1.5 fold
Rat heart tissue; CARDIOTOX 17, GenBank M14050
  Effects on Transcription Level: Immunoglobulin heavy chain binding protein (BiP): +2.0 fold
Rat heart tissue; CARDIOTOX 18, GenBank X56541
  Effects on Transcription Level: Membrane-spannining proteoglycan NG2: −1.5 fold
Rat heart tissue; CARDIOTOX 19
  Effects on Transcription Level: Novel gene fragment, 1294 bp, 96% SI to mouse Sui 1 (elF) homolog [AF129888]: +1.6 fold
Rat heart tissue; CARDIOTOX 20
  Effects on Transcription Level: Novel gene fragment, 723 bp, 85% SI to human translation initiation factor elF3 p40 subunit [U54559]: +1.5 fold
Rat heart tissue; CARDIOTOX 21
  Effects on Transcription Level: Novel gene fragment, 1324 bp, 76% SI to human flavoprotein subunit of complex II [D30648]: +1.5 fold
Rat heart tissue; CARDIOTOX 22
  Effects on Transcription Level: Novel gene fragment, 852 bp, 81% SI to human vacuolar proton-ATPase subunit M9.2 [Y15286]: +1.6 fold
Rat heart tissue; CARDIOTOX 23
  Effects on Transcription Level: Novel gene fragment, 178 bp, 91% SI to mouse myosin light chain-2 isoform MLC-2a [S70785]: +1.5 fold
Rat heart tissue; CARDIOTOX 24
  Effects on Transcription Level: Novel gene fragment, 167 bp, 90% SI to mouse Rab20 [X80332]: +1.8 fold
Rat heart tissue; CARDIOTOX 25
  Effects on Transcription Level: Novel gene fragment, 1070 bp, 80% SI to human muscle-specific protein [AF249873]: +1.7 fold
Rat heart tissue; CARDIOTOX 26
  Effects on Transcription Level: Novel gene fragment, 1143 bp, 82% SI to human sarcoma amplified sequence (SAS) [U01160]: +1.8 fold
Rat heart tissue; CARDIOTOX 27
  Effects on Transcription Level: Novel gene fragment, 74 bp,75% SI to human secreted protein [X30160] (from patent database)/[X97578] (from patent database)/potential cytokine): +1.6 fold
Rat heart tissue; CARDIOTOX 28
  Effects on Transcription Level: Novel gene fragment, 408 bp, 90% SI to human CGI-07 protein [AF132941]: +1.6 fold
Rat heart tissue; CARDIOTOX 29
  Effects on Transcription Level: Novel gene fragment, 618 bp, 95% SI to rat progression related cDNA, ZNPE-120 3′ end partial sequence [patent database X90805]: +1.6 fold
Rat heart tissue; CARDIOTOX 30
  Effects on Transcription Level: Novel gene fragment, 717 bp: +1.6 fold
Rat heart tissue; CARDIOTOX 31
  Effects on Transcription Level: Novel gene fragment, 546 bp: +1.5 fold
Rat heart tissue; CARDIOTOX 32
  Effects on Transcription Level: Novel gene fragment, 920 bp, 91% SI to human HSPC061 [AF161546]: +1.5 fold
Rat heart tissue; CARDIOTOX 33
  Effects on Transcription Level: Novel gene fragment, 203 bp, 92% SI to rabbit sarcoplasmic reticulum glycoprotein [J04480]: −1.7 fold
Rat heart tissue; CARDIOTOX 34
  Effects on Transcription Level: Novel gene fragment, 178 bp, 68% SI to mouse IgG receptor (beta-Fc-gamma-RII)[M63159]: +1.5 fold
Rat heart tissue; CARDIOTOX 35, GenBank X87107
  Effects on Transcription Level: Ribosomal protein L6: +1.5 fold
Rat heart tissue; CARDIOTOX 36, GenBank U31935
  Effects on Transcription Level: CAP2 protein (adenylyl cyclase-associated protein 2): +2.0 fold
Rat heart tissue; CARDIOTOX 37, GenBank M63837
  Effects on Transcription Level: Alpha-platelet-derived growth factor receptor: +1.5 fold
Rat heart tissue; CARDIOTOX 38, GenBank X74402
  Effects on Transcription Level: Rab GD1 alpha protein: −1.5 fold
Rat heart tissue; CARDIOTOX 39, GenBank Y08355
  Effects on Transcription Level: PKC-zeta-interacting protein: +1.5 fold
Rat heart tissue; CARDIOTOX 40, GenBank X65198
  Effects on Transcription Level: ERK or MAP kinase: +1.5 fold
Rat heart tissue; CARDIOTOX 41, GenBank U37486
  Effects on Transcription Level: Peroxisomal multifunctional enzyme type II: +1.5 fold
Rat heart tissue; CARDIOTOX 42, GenBank D30035
  Effects on Transcription Level: HBP23 (heme-binding protein 23 kDa): +1.6 fold
Rat heart tissue; CARDIOTOX 43, GenBank U90725
  Effects on Transcription Level: Caveolae-associated protein: +1.5 fold
Rat heart tissue; CARDIOTOX 44, GenBank AF025506
  Effects on Transcription Level: Prenylated rab acceptor 1 (PRA1): +1.6 fold
Rat heart tissue; CARDIOTOX 45
  Effects on Transcription Level: Novel gene fragment, 337 bp, 88% SI to rabbit cardiac ryanodine receptor (RyR-2)[U50465]: −1.6 fold
Rat heart tissue; CARDIOTOX 46
  Effects on Transcription Level: Novel gene fragment, 81 bp, 85% SI to human titin [X90568]: −1.8 fold
Rat heart tissue; CARDIOTOX 47
  Effects on Transcription Level: Novel gene fragment, 428 bp, 86% SI to human titin [X90568]: −1.8 fold
Rat heart tissue; CARDIOTOX 48
  Effects on Transcription Level: Novel gene fragment, 374 bp, 88% SI to human titin [X90568]: −1.8 fold
Rat heart tissue; CARDIOTOX 49
  Effects on Transcription Level: Novel gene fragment, 428 bp, 85% SI to human titin [90568]: −1.9 fold
Rat heart tissue; CARDIOTOX 50
  Effects on Transcription Level: Novel gene fragment, 1216 bp, 93% SI to mouse mircotubule-associated protein (MAP) 1B protein [AF115776]: −1.7 fold
Rat heart tissue; CARDIOTOX 51
  Effects on Transcription Level: Novel gene fragment, 1115 bp, 83% SI to human KIAA0549 protein [AB011121]: −1.8 fold
Rat heart tissue; CARDIOTOX 52
  Effects on Transcription Level: Novel gene fragment, 153 bp: −1.7 fold
Rat heart tissue; CARDIOTOX 53
  Effects on Transcription Level: Novel gene fragment, 89 bp, 93% SI to human putative glialblastoma cell differentiation-related protein (GBDR1) [AF068195]: −1.6 fold
Rat heart tissue; CARDIOTOX 54, GenBank U61266
  Effects on Transcription Level: Rho-associated kinase beta: −1.8 fold
Rat heart tissue; CARDIOTOX 55, GenBank D13062
  Effects on Transcription Level: Adenylate kinase 3: +1.6 fold
Rat heart tissue; CARDIOTOX 56, GenBank AF049878
  Effects on Transcription Level: Amyloid beta-peptide binding protein: +1.6 fold
Rat heart tissue; CARDIOTOX 57, GenBank D12771
  Effects on Transcription Level: Mitochondrial adenine nuleotide translocator: +1.6 fold
Rat heart tissue; CARDIOTOX 58
  Effects on Transcription Level: Novel gene fragment, 710 bp, 94% SI to mouse chromatin structural protein homolog Supt5 hp (Supt5 h)[U88539]: +3.4 fold
Rat heart tissue; CARDIOTOX 60
  Effects on Transcription Level: Novel gene fragment, 186 bp, 66% SI to human N-acetylglucosaminyltransferase 1 (GlcNAc-TI)[M55621]: −3.0 fold
Rat heart tissue; CARDIOTOX 61
  Effects on Transcription Level: Novel gene fragment, 238 bp, 95% SI to mouse MAP kinase-activated protein kinase 2 [X76850]: −2.4 fold
Rat heart tissue; CARDIOTOX 62
  Effects on Transcription Level: Novel gene fragment, 173 bp, 70% SI to G protein-coupled receptor kinase GRK4 [X97568]: −6.6 fold
Rat heart tissue; CARDIOTOX 63
  Effects on Transcription Level: Novel gene fragment, 133 bp, 77% SI to human apoptosis related protein hSARP3 [patent database: V19114]: −3.1 fold
Rat heart tissue; CARDIOTOX 64
  Effects on Transcription Level: Novel gene fragment, 477 bp, 98% SI to peroxisomal phytanoyl-CoA hydroxylase (PHYH) [AF121345]: +4.8 fold
Rat heart tissue; CARDIOTOX 65
  Effects on Transcription Level: Novel gene fragment, 413 bp, 95% SI to mouse dihydrolipoamide dehydrogenase (Dld) [U73445]: +2.3 fold
Rat heart tissue; CARDIOTOX 66
  Effects on Transcription Level: Novel gene fragment, 726 bp, 76% SI to human succinate dehydrogenase flavoprotein subunit (SDH) [L21936]: −4.0 fold
Rat heart tissue; CARDIOTOX 67
  Effects on Transcription Level: Novel gene fragment, 440 bp, 92% SI to mouse cytochrome c oxidase Vllc [X52940]: +4.0 fold
Rat heart tissue; CARDIOTOX 68
  Effects on Transcription Level: Novel gene fragment, 276 bp, 80% SI to human titin [X90568]: −12.7 fold
Rat heart tissue; CARDIOTOX 69
  Effects on Transcription Level: Novel gene fragment, 149 bp, 70% SI to human titin [X90568]: −5.6 fold
